For experiment [1], the system named is palmitoylation of SHH in HEK293a SHH+ cells. The experiment can be described thus: Cell-based YnPal metabolic tagging assay. The conditions noted are these: for pIC50: HEK293-A, HEK293a SHH+ cells. Here is the method:
We first quantified the direct impact of previously reported HHAT inhibitors on palmitoylation of SHH using a cell-based metabolic tagging assay.[27],[36] In this assay, HEK293a SHH^+ cells were incubated with varying concentrations of inhibitors in the presence of alkyne palmitic acid derivative YnPal (Figure 5A).[35] Following cell lysis and bioorthogonal derivatization of palmitoylated proteins with capture reagent azide-TAMRA-biotin (AzTB)^67 using a copper catalyzed azide–alkyne cycloaddition (CuAAC) reaction, AzTB-labeled SHH is shifted to higher apparent molecular weight in sodium dodecyl sulfate polyacrylamide gel electrophoresis (SDS-PAGE), thereby enabling quantification of acylated SHH by α-SHH immunoblotting (compound 2, 17, and 22) or fluorescence imaging (compound 24, 28, and 30; SI, Figure S5–S6).[42]
HEK293a SHH^+ cells were plated at 500,000 cells/well of a 6-well plate in a volume of 3 mL/well and cultured for 24 h as described. Cells were treated with DMSO vehicle, or RUSKI compounds in DMSO (0.016–10 μM final). After 1 h, 3 μL of YnPal (20 mM DMSO stock; 20 μM final) were added and the cells were cultured for another 6 h. Subsequently, cells were washed with PBS and lysed using PBS supplemented with 1% Triton, 0.1% SDS and Complete EDTA-free protease inhibitor cocktail (Roche Diagnostics). Cells were scraped off the plates and lysates centrifuged at 13 000g for 10 min at 4 °C to remove cell debris. Protein concentration was determined using the DC Protein Assay (Bio-Rad) following the manufacturer’s procedure.
The click reaction in cell lysate was performed as previously described.[42] Briefly, 1 μL AzTB (10 mM in DMSO, 100x), 2 μL CuSO4 (50 mM in H2O, 50x), 2 μL tris(2 carboxyethyl)phosphine hydrochloride (TCEP) (50 mM in H2O, 50×), and 1 μL tris[(1-benzyl-1H-1,2,3-triazol-4-yl)methyl]amine (TBTA, 10 mM in DMSO, 100×) were mixed. Then 6 μL of this click mixture were added to 100 μL of lysate, adjusted with lysis buffer to a protein concentration of 1 mg/mL. The click reaction was shaken at RT for 1 h. Subsequently, proteins were precipitated by adding methanol, chloroform, and water at a ratio of 2:0.5:1 to remove click reagents and excess of AzTB. The mixture was centrifuged (13 000g, 5 min at 4 °C) and the methanol and water containing top layer removed. Following the addition of an excess of methanol, the precipitated proteins were isolated by centrifugation (13 000g, 10 min at 4 °C) and washed twice with methanol. The protein pellets were air-dried and redissolved in PBS containing 0.2% SDS and 0.1 mM DTT using sonication, and adjusted to a final protein concentration of 1 mg/mL.
For enrichment of YnPal-labeled proteins, 100 μg of lysate were incubated with 30 μL of prewashed (3 × 500 μL of 0.2% SDS in PBS) Dynabeads MyOne Streptavidin C1 beads (Invitrogen) for 1 h at room temperature. Beads ware washed twice with 500 μL of 0.2% SDS in PBS and boiled for 10 min in 15 μL of PBS containing SDS-PAGE sample buffer. The entire pull-down sample and 10 μg of total lysate and supernatant fractions were loaded on a 15% SDS-PAGE gel. Fluorescence was scanned using a Typhoon imager (GE Healthcare; excitation laser: 532 nm, emission filter: LPG (575–700 nm); PMT: 750 V).
Proteins were transferred to nitrocellulose membrane using a wet transfer apparatus (100 V, 1 h). Membranes were blocked with 5% BSA in TBS-T (0.1% Tween-20, 50 mM Tris, 150 mM NaCl, pH 7.5) for 1 h at room temperature, followed by overnight incubation with SHH H-160 primary antibody (Santa Cruz Biotechnology; sc-9024; 1:200 in TBS-T + 0.5% BSA) or α-tubulin primary antibody (Santa Cruz Biotechnology; sc-8035; 1:200 in TBS-T + 0.5% BSA) at 4 °C. Membranes were washed with TBS-T and further incubated at RT for 1 h with the appropriate secondary antibody (HRP conjugated goat-antimouse IgG (H+L) or goat-antirabbit IgG (H+L); Advansta; 1:10,000 in TBS-T + 0.5% BSA). […]

For experiment [2], the system named is HH signaling (HEK293a SHH+ conditioned media on SHH-Light2 cells). Put plainly: Light2 dual-luciferase cell-based HH signaling assay (Firefly). Here is the method: Subsequently, the effect of analogues on HH signaling was investigated using a cellular luciferase reporter assay. Light2 cells derived from NIH3T3 cells constitutively express Renilla luciferase as an internal control for cell density alongside Firefly luciferase under the control of a HH-responsive Gli promoter.[43] HEK293a SHH^+ cells were incubated with varying inhibitor concentrations and SHH-containing conditioned media transferred to the NIH3T3-Light2 cells to mimic paracrine signaling[30],[35] (Figure 6A).
The Light2 cell-based signaling assay has been described previously.[35] Briefly, HEK293a SHH^+ cells were plated at 120,000 cells/well of a 12-well plate in a volume of 1 mL/well and cultured as described above. After 24 h, cells were washed with PBS, followed by addition of 1 mL of media containing 0.2% DMSO or varying inhibitor concentrations in DMSO (0.041–30 μM final). Additionally, SHH-Light2 cells were plated at 20,000 cells/well of a 96-well plate in 50 μL media. After another 24 h, 300 μL of the conditioned media were collected from each well of the treated HEK293a SHH^+ cells, centrifuged at 1000g for 10 min to remove detached cells and split into three wells of the SHH-Light2 cells (100 μL/well; 150 μL final volume in each well). The treated Light2 cells were cultured for another 48 h and subsequently washed with PBS. Firefly and Renilla luciferase activity was measured using the Dual-Luciferase reporter system (Promega Corporation, USA). Then 20 μL of 1× passive lysis buffer were added to each well. After 30 min at RT, 5 μL of each lysate were transferred to a white opaque 96-well plate. Then 20 μL/well of luciferase assay reagent II was added and the luminescence immediately recorded using a SpectraMax i3x plate reader (Molecular Devices LLC). Subsequently, 20 μL/well of 1× Stop&Glo substrate in Stop&Glo buffer was added and the luminescence immediately recorded for a second time. Data was evaluated using a “sigmoidal dose response (variable slope)” model in GraphPad Prism 5 (GraphPad Software, Inc.). The luminescence signal of the Firefly luciferase was normalized to the DMSO vehicle (100%) and the unconditioned media (0%) controls.

[3] abbreviates: read-out: YnPal tagging IC50 (CI95).
The mark [4] stands for this setting: Firefly luciferase, Light2 cells, read-out: HH signaling inhibition EC50 (CI95).

For orientation: pIC50 means −log10 of the IC50, conventionally taken in molar units. As a reminder, the pEC50 is −log10 of the EC50, conventionally taken in molar units.

The structures appear in SMILES notation. pEC50, pIC50: −log10 of the molar value. Read-outs that look alike come from different tables or passages of the source.

Regarding `CCC(C)CNCC(=O)N1CCc2sccc2C1c1cccc(C)n1` (stereo not drawn) [Compound 22], in experiment [1] (setting [3]), the negative-log IC50 (pIC50) is 5.97. In addition, the negative-log EC50 (pEC50) in experiment [2] (setting [4]) is 6.24.
For `Cc1cccc(C2c3ccsc3CCN2C(=O)CNCC(C)C)n1` (stereo not drawn) [Compound 24], in that order: 6.31 and 5.93.
As for `CCC(C)CNCC(=O)N1CCc2sccc2C1c1cccc(C)c1` (stereo not drawn) [Compound 17], the negative logarithm of the IC50 (pIC50) in experiment [1] (setting [3]) is 6.24. In addition, the pEC50 in experiment [2] (setting [4]) was 5.93.
In the case of `C=CCNCC(=O)N1CCc2sccc2C1COc1ccc(Cl)cc1` (stereo not drawn) [Compound 2], the negative logarithm of the IC50 (pIC50) in experiment [1] (setting [3]) is 5.63.
Take `Cc1cccc([C@H]2c3ccsc3CCN2C(=O)CNCC(C)C)n1` [Compound 30]: in experiment [1] (read-out: IC50, cellular YnPal labeling of SHH), the pIC50 was 7.12. In addition, the negative-log EC50 (pEC50) in experiment [2] (setting [4]) was 7.00; in experiment [2] (Light2 luciferase reporter, read-out: EC50 against HH signaling), 7.00.
On to `Cc1cccc([C@@H]2c3ccsc3CCN2C(=O)CNCC(C)C)n1` [Compound 28], for which the “inhibition of SHH tagging by YnPal” value in experiment [1] is “inactive”. For the same compound, in experiment [1] (setting [3]), the negative logarithm of the IC50 (pIC50) was less than 5.00. Besides, the “effect on HH signaling” value in experiment [2] was “inactive”. Also, the negative logarithm of the EC50 (pEC50) in experiment [2] (setting [4]) was less than 4.52.
Take `CC(=O)N1CCc2sccc2C1c1ccccc1` (stereo not drawn) [Compound 5]: in experiment [2] (setting [4]), the pEC50 is 5.34.

(Values after paper PMC10823475, “Design, Synthesis, and Evaluation of Inhibitors of Hedgehog Acyltransferase” (Journal of Medicinal Chemistry, 2024).)
